One test addresses T1, XIAP BIR3 (Homo sapiens, UniProt P98170).
T1 construct: His-BIR3 (241-356, XIAP)
Description: XIAP-BIR3/SMAC Homogeneous Time Resolved Fluorescence (HTRF) Assay. It is filed as binding. The essentials:
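Competition HTRF between XIAP-BIR3 and SMAC; reaction 60 min at room temperature, then anti-6×His-terbium Fab detection for a further 30 min.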
Background: In TR-FRET formats the signal depends on donor and acceptor labels being close together.

Another test has as its target T2, XIAP BIR2-3 (Homo sapiens, UniProt P98170, C202A/C213G).
T2 construct: His-BIR2-3 (125-356, C202A/C213G, XIAP)
Description: XIAP-BIR2-3 dimeric SMAC Peptide Homogeneous Time Resolved Fluorescence (HTRF) Assay. It counts as binding. The protocol: B. […] Assays were performed in black, flat-bottom, 384-well plates. […] Compounds were dissolved at 3 mM in dimethylsulfoxide (DMSO) and evaluated at eleven serially diluted concentrations. IC50 and Ki values were derived by non-linear regression analysis.

Setting [1] is: 1 nM N-His-BIR3 (241-356, XIAP), 5 nM fluorescein labeled SMAC peptide, HTRF signal, read-out: XIAP BIR3 IC50.
[2] abbreviates: 0.5 nM N-His-BIR2-3 (125-356, C202A/C213G, XIAP), 20 nM fluorescein labeled dimeric SMAC peptide, HTRF signal, read-out: XIAP BIR2-3 IC50.

The source of these data is patent US8889712B2, “IAP antagonists” (Bristol-Myers Squibb Company, priority 2012, dated 2014).

For orientation: pIC50 means the negative decadic logarithm of the IC50, by convention in mol/L.

pIC50: −log10 of the molar value. Where two headings read alike, the source gives them in different places.

T1 sequence (P98170 241-356): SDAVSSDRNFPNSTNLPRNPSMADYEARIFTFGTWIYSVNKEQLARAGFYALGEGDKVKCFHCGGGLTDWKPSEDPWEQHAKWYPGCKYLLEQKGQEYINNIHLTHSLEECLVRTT
T2 sequence (P98170 125-356 C202A/C213G): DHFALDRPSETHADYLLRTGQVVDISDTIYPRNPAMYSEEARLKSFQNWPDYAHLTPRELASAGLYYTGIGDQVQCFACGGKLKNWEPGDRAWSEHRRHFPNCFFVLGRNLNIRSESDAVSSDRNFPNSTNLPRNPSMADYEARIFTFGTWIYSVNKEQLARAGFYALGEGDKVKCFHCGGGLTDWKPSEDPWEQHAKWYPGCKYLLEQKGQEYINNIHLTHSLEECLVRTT

With `CN[C@@H](C)C(=O)N[C@H](C(=O)N1C[C@@H](c2ccc3c(c2)CN(C(=O)[C@@H](NC(=O)[C@H](C)NC)C(C)(C)C)[C@H](C(=O)N[C@@H]2CCCc4ccccc42)C3)C[C@H]1C(=O)N[C@@H](Cc1ccccc1)C(=O)Nc1ccccc1)C(C)(C)C` [Example 68, (S)-2-((S)-3,3-Dimethyl-2-((S)-2-(methylamino)propanamido)butanoyl)-7-((3R,5S)-1-((S)-3,3-dimethyl-2-((S)-2-(methylamino)propanamido)butanoyl)-5-(((S)-1-oxo-3-phenyl-1-(phenylamino)propan-2-yl)carbamoyl)pyrrolidin-3-yl)-N-((R)-1,2,3,4-tetrahydronaphthalen-1-yl)-1,2,3,4-tetrahydroisoquinoline-3-carboxamide], the figures for the pIC50 on XIAP BIR3 and at XIAP BIR2-3 were 8.31 and 8.89, respectively.
`CN[C@@H](C)C(=O)N[C@H](C(=O)N1C[C@@H](c2ccc3c(c2)CN(C(=O)[C@@H](NC(=O)[C@H](C)NC)C(C)(C)C)[C@H](C(=O)N[C@@H]2CCCc4ccccc42)C3)C[C@H]1C(=O)N[C@@H](Cc1ccccc1)C(=O)NCCC(C)C)C(C)(C)C` [Example 69, (S)-2-((S)-3,3-Dimethyl-2-((S)-2-(methylamino)propanamido)butanoyl)-7-((3R,5S)-1-((S)-3,3-dimethyl-2-((S)-2-(methylamino)propanamido)butanoyl)-5-(((S)-1-(isopentylamino)-1-oxo-3-phenylpropan-2-yl)carbamoyl)pyrrolidin-3-yl)-N-((R)-1,2,3,4-tetrahydronaphthalen-1-yl)-1,2,3,4-tetrahydroisoquinoline-3-carboxamide]: the pIC50 at XIAP BIR3 (setting [1]) is 8.07; at XIAP BIR2-3 (setting [2]) it was 8.82.
Regarding `CN[C@@H](C)C(=O)N[C@H](C(=O)N1C[C@@H](c2ccc3c(c2)CN(C(=O)[C@@H](NC(=O)[C@H](C)NC)C(C)(C)C)[C@H](C(=O)N[C@@H]2CCCc4ccccc42)C3)C[C@H]1C(=O)N[C@H](COC)Cc1ccccc1)C(C)(C)C` [Example 75, (S)-2-((S)-3,3-Dimethyl-2-((S)-2-(methylamino)propanamido)butanoyl)-7-((3R,5S)-1-((S)-3,3-dimethyl-2-((S)-2-(methylamino)propanamido)butanoyl)-5-(((S)-1-methoxy-3-phenylpropan-2-yl)carbamoyl)pyrrolidin-3-yl)-N-((R)-1,2,3,4-tetrahydronaphthalen-1-yl)-1,2,3,4-tetrahydroisoquinoline-3-carboxamide], the pIC50 on XIAP BIR3 (setting [1]) was 7.84; on XIAP BIR2-3 (setting [2]) it was 8.52.
For the compound `CN[C@@H](C)C(=O)N[C@H](C(=O)N1C[C@@H](c2ccc3c(c2)CN(C(=O)[C@@H](NC(=O)[C@H](C)NC)C(C)(C)C)[C@H](C(=O)N[C@@H]2CCCc4ccccc42)C3)C[C@H]1C(=O)N[C@@H](Cc1ccccc1)C(=O)OC)C(C)(C)C` [Example 76, (S)-Methyl 2-((2S,4R)-1-((S)-3,3-dimethyl-2-((S)-2-(methylamino)propanamido)butanoyl)-4-((S)-2-((S)-3,3-dimethyl-2-((S)-2-(methylamino)propanamido)butanoyl)-3-(((R)-1,2,3,4-tetrahydronaphthalen-1-yl)carbamoyl)-1,2,3,4-tetrahydroisoquinolin-7-yl)pyrrolidine-2-carboxamido)-3-phenylpropanoate], the pIC50 was 7.72 against XIAP BIR3 and 8.60 at XIAP BIR2-3.
As for `CN[C@@H](C)C(=O)N[C@H](C(=O)N1C[C@@H](c2ccc3c(c2)CN(C(=O)[C@@H](NC(=O)[C@H](C)NC)C(C)(C)C)[C@H](C(=O)N[C@@H]2CCCc4ccccc42)C3)C[C@H]1C(=O)N[C@@H](Cc1ccccc1)C(=O)O)C(C)(C)C` [Example 77, (S)-2-((2S,4R)-1-((S)-3,3-Dimethyl-2-((S)-2-(methylamino)propanamido)butanoyl)-4-((S)-2-((S)-3,3-dimethyl-2-((S)-2-(methylamino)propanamido)butanoyl)-3-(((R)-1,2,3,4-tetrahydronaphthalen-1-yl)carbamoyl)-1,2,3,4-tetrahydroisoquinolin-7-yl)pyrrolidine-2-carboxamido)-3-phenylpropanoic acid], the pIC50 at XIAP BIR3 (setting [1]) is 8.77; at XIAP BIR2-3 (setting [2]) it was 9.10.
For the compound `CN[C@@H](C)C(=O)N[C@H](C(=O)N1C[C@@H](c2ccc3c(c2)CN(C(=O)[C@@H](NC(=O)[C@H](C)NC)C(C)(C)C)[C@H](C(=O)N[C@@H]2CCCc4ccccc42)C3)C[C@H]1C(=O)N[C@@H](Cc1ccccc1)c1nnn[nH]1)C(C)(C)C` [Example 78, (S)-2-((S)-3,3-Dimethyl-2-((S)-2-(methylamino)propanamido)butanoyl)-7-((3R,5S)-1-((S)-3,3-dimethyl-2-((S)-2-(methylamino)propanamido)butanoyl)-5-(((S)-2-phenyl-1-(1H-tetrazol-5-yl)ethyl)carbamoyl)pyrrolidin-3-yl)-N—((R)-1,2,3,4-tetrahydronaphthalen-1-yl)-1,2,3,4-tetrahydroisoquinoline-3-carboxamide], the results for the pIC50 at XIAP BIR3 (setting [1]) and on XIAP BIR2-3 (setting [2]) were 8.05 and 8.55, respectively.
Consider `CN[C@@H](C)C(=O)N[C@H](C(=O)N1C[C@@H](c2ccc3c(c2)CN(C(=O)[C@@H](NC(=O)[C@H](C)NC)C(C)(C)C)[C@H](C(=O)N[C@@H]2CCCc4ccccc42)C3)C[C@H]1C(=O)N[C@@H](Cc1ccccc1)c1nnc(C)o1)C(C)(C)C` [Example 79, (S)-2-((S)-3,3-Dimethyl-2-((S)-2-(methylamino)propanamido)butanoyl)-7-((3R,5S)-1-((S)-3,3-dimethyl-2-((S)-2-(methylamino)propanamido)butanoyl)-5-(((S)-1-(5-methyl-1,3,4-oxadiazol-2-yl)-2-phenylethyl)carbamoyl)pyrrolidin-3-yl)-N—((R)-1,2,3,4-tetrahydronaphthalen-1-yl)-1,2,3,4-tetrahydroisoquinoline-3-carboxamide], for which the pIC50 on XIAP BIR3 (setting [1]) was 7.78; at XIAP BIR2-3 (setting [2]), 8.47.
As for `CN[C@@H](C)C(=O)N[C@H](C(=O)N1C[C@@H](c2ccc3c(c2)CN(C(=O)[C@@H](NC(=O)[C@H](C)NC)C(C)(C)C)[C@H](C(=O)N[C@@H]2CCCc4ccccc42)C3)C[C@H]1C(=O)N[C@@H](Cc1ccccc1)c1noc(C)n1)C(C)(C)C` [Example 80, (S)-2-((S)-3,3-Dimethyl-2-((S)-2-(methylamino)propanamido)butanoyl)-7-((3R,5S)-1-((S)-3,3-dimethyl-2-((S)-2-(methylamino)propanamido)butanoyl)-5-(((S)-1-(5-methyl-1,2,4-oxadiazol-3-yl)-2-phenylethyl)carbamoyl)pyrrolidin-3-yl)-N—((R)-1,2,3,4-tetrahydronaphthalen-1-yl)-1,2,3,4-tetrahydroisoquinoline-3-carboxamide], the pIC50 at XIAP BIR3 (setting [1]) was 8.14; on XIAP BIR2-3 (setting [2]), 8.59.
Regarding `CN[C@@H](C)C(=O)N[C@H](C(=O)N1C[C@@H](c2ccc3c(c2)CN(C(=O)[C@@H](NC(=O)[C@H](C)NC)C(C)(C)C)[C@H](C(=O)N[C@@H]2CCCc4ccccc42)C3)C[C@H]1C(=O)N[C@@H](Cc1ccccc1)c1ncc(C)o1)C(C)(C)C` [Example 81, (S)-2-((S)-3,3-Dimethyl-2-((S)-2-(methylamino)propanamido)butanoyl)-7-((3R,5S)-1-((S)-3,3-dimethyl-2-((S)-2-(methylamino)propanamido)butanoyl)-5-(((S)-1-(5-methyloxazol-2-yl)-2-phenylethyl)carbamoyl)pyrrolidin-3-yl)-N—((R)-1,2,3,4-tetrahydronaphthalen-1-yl)-1,2,3,4-tetrahydroisoquinoline-3-carboxamide], the pIC50 at XIAP BIR3 (setting [1]) is 7.87; at XIAP BIR2-3 (setting [2]), 8.59.
